Peptide text beside a SMILES is read from it.
Tests used:
[1] = MTT cell viability (cytotoxicity); assay type: cell-based; details: human, Caco-2 cells (1 × 10^4), synthetic peptides 0.05 mg/mL, no TbOOH, mean ± SD of at least three experiments, read-out: Percentage of Cell Viability, None (c)
[2] = tested on: Caco-2 cell monolayer; experiment: Transepithelial transport through Caco-2 cell monolayers (Transwell); assay type: in vitro ADME; details: Caco-2 monolayer on Transwell, 21 days, TEER > 1100 Ω × cm^2, 75 µg peptide in 0.75 mL HBSS apical, 37 °C, RP-HPLC UV 220 nm, mean ± SD, n. d. = not detected with RP-HPLC
Method: Caco-2 cells were obtained from DISCOG (University of Padova, Padova, Italy). The cells cultured in DMEM (high glucose) supplemented with 10% FBS, were used between 35 and 60 passages. In order to perform transepithelial transport, 8 × 10^4 cells were seeded on Transwell^© cell culture inserts (0.4 µm pore sizes, 12 mm diameter, 1.12 cm^2 grown surface; Corning Life Sciences, Tewksbury, MA, USA). Cells were grown, differentiated for 21 days and the monolayer integrity was estimated by transepithelial electrical resistance (TEER) (Millicell® ERS-2 volt-ohmmeter, EDM Millipore, Darmstadt, Germany) showing values higher than 1100 Ω × cm^2.
The intestinal barrier crossing capacity of the fractions or synthetic peptides through Caco-2 cells monolayer was evaluated using Transwell® insert model according to Tonolo et al.. Briefly, after 21 days of culturing, Caco-2 cells differentiated forming a monolayer that delimited an upper part (apical compartment) and lower part (basolateral compartment). The monolayer was rinsed three times with Hank’s balanced salt solution (HBSS) and 10 mM D-glucose and equilibrated for 30 min at 37 °C. After, cells were incubated in the presence of 0.75 mL HBSS containing 150 µg fraction or 75 µg peptide in the apical chamber at 37 °C for 120 min. Samples collected from both compartments (apical and basolateral) at different times were centrifuged at 11,600× g, filtered with 0.45 µm filter, frozen and lyophilized. Subsequently, the obtained samples were dissolved in 100 µL of 0.1% TFA aqueous solution and evaluated by RP-HPLC and Matrix assisted laser desorption/ionization- time of flight/time of flight mass spectrometry (MALDI-TOF/TOF MS).
The apical and basolateral compartments were evaluated in RP-HPLC using a column Onyx Monolithic C18 100 mm × 4.6 mm, LC column (Phenomenex, Torrance, CA, USA) with a Waters 2695 Separation Module (Milfold, MA, USA) with a Waters 996 Photodiode Array Detector. Separations were performed with a linear gradient from 0–60% ACN in the presence of 0.1% TFA over 20 min at a constant flow rate of 2 mL/min monitoring the peaks by UV detection (λ = 220 nm).
Subsequently, the obtained fractions were analysed with a MALDI-TOF/TOF 4800 mass spectrometer (AB Sciex, Framingham, MA, USA). After an initial full MS scan, enlargements on the MS signals of interest were acquired. For the basolateral fractions, the samples, after lyophilisation, were dissolved in 50 µL of 25% ACN and 0.1% TFA. The analysis was then performed on 2 µL of these solutions mixed with 2 µL of peptide MALDI matrix α-cyano-4-hydroxycynnamic acid (10 mg/mL aqueous 70% acetonitrile/0.1% TFA). The following analytical conditions were set for MALDI-TOF spectra acquisition: positive ion reflector mode, initial mass range 500–3500 Da (the mass range was then adapted for each enlargement), variable laser intensity (3000–3800), shots/sub-spectrum 50, total shots/spectrum 1500 and accelerating voltage of 20 kV. Final data analysis and fragments identification were done on Data Explorer software (AB Sciex, Framingham, MA, USA), utilizing external mass calibration performed with mass peptide standards (Sigma-Aldrich, St Louis, MO, USA).
In order to evaluate the intestinal crossing capacity of the four peptides, Transwell® insert model peptide absorption, was performed. […] After 10 min and 120 min, apical and basolateral compartments were collected and analyzed by RP-HPLC and mass spectrometry.

RP-HPLC Estimation AP (%) ([2]; 120 min after 30 min equilibration, apical compartment, % of total peptide added): 87.59 ± 12.18% | RP-HPLC Estimation BL (%) ([2]; A-B, 120 min, basolateral compartment, % of initial peptide added apically): 0.02 ± 0.01%
Structure (SMILES): CC[C@H](C)[C@H](NC(=O)[C@@H]1CCCN1C(=O)CNC(=O)[C@@H](N)CCC(N)=O)C(=O)N[C@H](C(=O)N[C@@H](CC(C)C)C(=O)N[C@@H](CC(N)=O)C(=O)N1CCC[C@H]1C(=O)N[C@@H](Cc1c[nH]c2ccccc12)C(=O)N[C@@H](CC(=O)O)C(=O)N[C@@H](CCC(N)=O)C(=O)N[C@H](C(=O)N[C@@H](CCCCN)C(=O)N[C@@H](CCCNC(=N)N)C(=O)O)C(C)C)C(C)C [Q-14-R] (H-QGPIVLNPWDQVKR-OH)
viability at 24 h, 50 µg/mL [1]: 115 ± 15.6%

Reference: paper PMC7070694, “Identification of New Peptides from Fermented Milk Showing Antioxidant Properties: Mechanism of Action” (Antioxidants, 2020)
